Results: US4235909A, “Octahydro-2H-pyrrolo[3,4-g]quinolines” (Eli Lilly and Company, priority 1979, dated 1980)
Structures can show the parent of a compound that is named as a salt.

Tests used:
[1] = Acute lethality after intraperitoneal dosage (LD50); type: in vivo
Experimental: In using the compounds of this invention to inhibit prolactin secretion or to treat Parkinson's syndrome or for other pharmacologic action, a compound according to Formula I above in which R^2 is C1 -C3 alkyl or allyl and R^1 is H or C1 -C3 alkyl, or a salt thereof with a pharmaceutically-acceptable acid, is administered to a subject suffering from Parkinsonism or in need of having this prolactin level reduced in an effective amount to treat Parkinsonism or to reduce prolactin. Oral administration is preferred. If parenteral administration is used, the injection is preferably by the subcutaneous route using an appropriate pharmaceutical formulation. […] In particular, with intravenous or intramuscular administration, a water soluble pharmaceutically-acceptable salt is employed. For oral administration, the compound either as the free base or in the form of a salt thereof can also be mixed with standard pharmaceutical excipients and loaded into empty telescoping gelatin capsules or pressed into tablets. The oral dosage range is from about […]. to 10 mg./kg. of mammalian weight and the parenteral dose range from about 0.0025 to 2.5 mg./kg.

[2] = tested on: 6-hydroxydopamine-lesioned rats; assay: Rat turning test in 6-hydroxydopamine-lesioned (nigro-neostriatal-lesioned) rats, dopamine agonist activity; type: in vivo; details: 1 mg/kg intraperitoneal; for % of Rats Exhibiting Turning Behavior: aqueous solution; for Average Number of Turns/rat: first 15 minutes after end of latency period
Experimental: In this test, nigro-neostriatal-lesioned rats are employed, as prepared by the procedure of Ungerstedt and Arbuthnott, Brain Res, 24, 485 (1970). A compound having dopamine agonist activity causes the rats to turn in circles contralateral to the side of the lesion. After a latency period, which varies from compound to compound, the number of turns is counted over a 15-minute period.
The compounds were dissolved in water and the aqueous solution injected into the rat by the intraperitoneal route at a dose level of 1 mg/kg.

prolactin = assay: Inhibition of prolactin secretion in reserpine-treated male rats; type: in vivo, rat (Sprague-Dawley); details: serum one hour after treatment, reserpine pretreated male rats
Experimental: The compounds of this invention are also useful as prolactin inhibitors and as such they can be employed in the treatment of inappropriate lactation such as postpartum lactation and galactorrhea.
Adult male rats of the Sprague-Dawley strain weighing about 200 g. were housed in an air-conditioned room with controlled lighting (lights on […].) and fed lab chow and water ad libitum. Each rat received an intraperitoneal injection of 2.0 mg. of reserpine in aqueous suspension 18 hours before administration of the test drug. The purpose of the reserpine was to keep prolactin levels uniformly elevated. The compounds under test were dissolved in 10 percent ethanol, and were injected intraperitoneally at doses of 0.5 and 5 mg/kg. Each compound was administered at each dose level to a group of 10 rats, and a control group of 10 intact males received an equivalent amount of 10 percent ethanol. One hour after treatment, all rats were killed by decapitation, and 150 μl aliquots of serum were assayed for prolactin.
The difference between the prolactin level of the treated rats and prolactin level of the control rats, divided by the prolactin level of the control rats gives the percent inhibition of prolactin secretion attributable to the compounds of this invention. In the table, column 1 gives the name of the compound; and columns 2 and 3, the percent prolactin inhibition at the 0.5 and 5 mg/kg dose levels.

Row | SMILES | LD50 ([1]; in vivo, ip, intraperitoneal, indicated from lethality at the doses tested) [mg/kg] | deaths ([1]; intraperitoneal dosages of 10-30 mg./kg.) | lethality ([1]; intraperitoneal dosages of 100-300 mg./kg.) | % of Rats Exhibiting Turning Behavior [2] [%] | Average Number of Turns/rat [2] [Turns/rat] | Percent Prolactin Inhibition at Given Dose (prolactin; 0.5 mg/kg intraperitoneal) [%] | Percent Prolactin Inhibition at Given Dose (prolactin; 5 mg/kg intraperitoneal) [%]
1 | CCCN1CCC[C@@H]2Cc3c[nH]cc3C[C@H]21 (relative stereo) | 30 to 100 | no deaths | fatal |  |  |  | 
2 | CN1CCC[C@@H]2Cc3c[nH]cc3C[C@H]21 (relative stereo) [trans-dl-5-Methyl-4,4a,5,6,7,8,8a,9-octahydro-2H-pyrrolo[3,4-g]quinoline maleate] |  |  |  | 33 | 20 | 23 | 90
3 | CCCN1CCC[C@@H]2Cc3c[nH]cc3C[C@H]21 (relative stereo) [trans-dl-5-n-Propyl-4,4a,5,6,7,8,8a,9-octahydro-2H-pyrrolo-[3,4-g]quinoline maleate] |  |  |  | 100 | 169 |  | 95
4 | CCCN1C[C@H](CO)C[C@@H]2Cc3c[nH]cc3C[C@H]21 (relative stereo) [trans-dl-5-n-propyl-7-hydroxymethyl-4,4a,5,6,7,8,8a,9-octahydropyrrolo[3,4-g]quinoline] |  |  |  | 100 | 109 |  | 
